The text below walks through data of patent US11878970B2, “Allosteric chromenone inhibitors of phosphoinositide 3-kinase (PI3K) for the treatment of disease” (Petra Pharma Corporation, priority 2021, dated 2024).

A value given as a limit tells only on which side of the number the result lay.

Test [1] addresses T1, PI3K-α (PIK3CA) wild-type (WT), p110α/p85α complex (Homo sapiens, UniProt P42336).
T1 construct: Recombinant, catalytically active human full length PIK3KA Wild-type and H1047R mutant; 6×His (N); purchased EMD Millipore Sigma 14-602M
Briefly: PI3K-alpha kinase (PIK3CA) biochemical activity, ADP-Glo, wild-type. To be noted: Soy PI lipid substrate. A digest of the protocol:
(§1)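 ADP formation measured by ADP-Glo luminescence after reaction at 27 °C to about 10% ATP turnover, using 20 uM ATP, 50 uM PIP2diC8 or soy PI lipid, HEPES pH 7.4 with MgCl2. Enzyme (1-5 nM WT or H1047R p110α/p85α) and compound preincubated 1 h first; 10-point 1:3 curves fitted four-parameter for IC50.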
(In general: ADP-Glo turns the ADP formed in a reaction into a luminescent signal.)

The target of test [2] is T2, PI3K-α (PIK3CA) H1047R mutant, p110α/p85α complex (Homo sapiens, UniProt P42336, H1047R).
T2 construct: Recombinant, catalytically active human full length PIK3KA Wild-type and H1047R mutant; 6×His (N); purchased EMD Millipore Sigma 14-792M
T2 sequence (P42336 whole entry H1047R): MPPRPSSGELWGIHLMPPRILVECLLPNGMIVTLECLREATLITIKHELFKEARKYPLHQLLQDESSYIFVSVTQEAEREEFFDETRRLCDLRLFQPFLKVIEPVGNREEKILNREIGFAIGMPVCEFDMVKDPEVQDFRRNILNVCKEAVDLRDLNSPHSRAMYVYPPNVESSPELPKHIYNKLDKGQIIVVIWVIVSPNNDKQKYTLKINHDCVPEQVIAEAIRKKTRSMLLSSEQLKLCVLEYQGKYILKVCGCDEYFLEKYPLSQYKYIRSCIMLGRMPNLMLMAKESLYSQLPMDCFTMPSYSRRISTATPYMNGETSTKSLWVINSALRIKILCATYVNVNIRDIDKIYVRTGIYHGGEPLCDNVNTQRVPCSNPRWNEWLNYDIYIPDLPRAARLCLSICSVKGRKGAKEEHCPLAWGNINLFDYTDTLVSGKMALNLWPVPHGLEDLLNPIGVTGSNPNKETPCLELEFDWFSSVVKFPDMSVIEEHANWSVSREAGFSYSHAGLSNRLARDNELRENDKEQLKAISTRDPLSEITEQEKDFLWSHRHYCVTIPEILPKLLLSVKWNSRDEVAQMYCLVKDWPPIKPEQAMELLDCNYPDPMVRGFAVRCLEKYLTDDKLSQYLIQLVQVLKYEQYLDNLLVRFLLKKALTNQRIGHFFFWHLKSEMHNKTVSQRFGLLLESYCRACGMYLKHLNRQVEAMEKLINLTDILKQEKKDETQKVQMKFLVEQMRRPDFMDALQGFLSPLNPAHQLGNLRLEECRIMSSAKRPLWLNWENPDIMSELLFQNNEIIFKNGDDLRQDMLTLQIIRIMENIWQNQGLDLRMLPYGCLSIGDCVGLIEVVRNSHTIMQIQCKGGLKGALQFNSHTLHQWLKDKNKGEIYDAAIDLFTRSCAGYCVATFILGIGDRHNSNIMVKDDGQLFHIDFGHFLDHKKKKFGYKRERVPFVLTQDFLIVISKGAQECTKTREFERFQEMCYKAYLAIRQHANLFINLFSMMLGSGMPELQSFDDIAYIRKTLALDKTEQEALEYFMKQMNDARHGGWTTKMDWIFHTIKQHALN
T2 sequence (P27986 whole entry partner): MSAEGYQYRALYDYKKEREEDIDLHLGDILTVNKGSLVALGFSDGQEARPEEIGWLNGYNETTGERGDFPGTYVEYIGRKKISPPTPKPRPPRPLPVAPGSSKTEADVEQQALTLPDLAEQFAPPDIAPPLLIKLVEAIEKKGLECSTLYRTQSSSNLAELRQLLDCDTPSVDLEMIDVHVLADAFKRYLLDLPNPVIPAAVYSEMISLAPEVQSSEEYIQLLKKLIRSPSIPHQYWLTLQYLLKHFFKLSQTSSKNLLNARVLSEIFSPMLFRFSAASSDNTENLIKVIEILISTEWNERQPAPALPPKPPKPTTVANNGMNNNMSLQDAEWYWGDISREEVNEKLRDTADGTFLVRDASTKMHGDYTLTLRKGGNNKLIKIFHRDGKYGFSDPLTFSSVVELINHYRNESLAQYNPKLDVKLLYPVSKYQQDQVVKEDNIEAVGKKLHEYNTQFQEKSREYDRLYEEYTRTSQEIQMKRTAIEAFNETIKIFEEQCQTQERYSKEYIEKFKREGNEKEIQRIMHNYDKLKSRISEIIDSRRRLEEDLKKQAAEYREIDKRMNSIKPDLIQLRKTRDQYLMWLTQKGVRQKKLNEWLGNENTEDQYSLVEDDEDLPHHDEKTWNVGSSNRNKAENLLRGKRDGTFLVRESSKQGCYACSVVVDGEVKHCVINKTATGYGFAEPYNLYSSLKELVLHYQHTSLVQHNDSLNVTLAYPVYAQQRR
The test is described as follows: PI3K-alpha kinase (PIK3CA) biochemical activity, ADP-Glo, H1047R mutant. Conditions: Soy PI lipid substrate. Summed up: as §1

What is called IC50 is the point on the concentration scale where inhibition reaches its midpoint.

For `Cc1cc(C(C)Nc2ccccc2C(=O)O)c2oc(-c3ccc4nc(C)cn4c3)cc(=O)c2c1` (stereo not shown) [Example 16, 2-[1-[6-Methyl-2-(2-methylimidazo[1,2-a]pyridin-6-yl)-4-oxo-chromen-8-yl]ethylamino]benzoic acid], the IC50 in test [1] is 1 to 5 µM; in test [2], under 0.5 µM.
The like results for `Cc1cc(C(C)Nc2ccccc2C(=O)O)c2oc(-c3ccc4c(cnn4C)n3)cc(=O)c2c1` (single isomer, unassigned) [Example 164, 2-[1-[6-Methyl-2-(1-methylpyrazolo[4,3-b]pyridin-5-yl)-4-oxo-chromen-8-yl]ethylamino]benzoic acid] were, in that order, 1 to 5 µM and under 0.5 µM.
The like results for `Cc1cc(C(C)Nc2ccccc2C(=O)O)c2oc(-c3ccc4cnncc4c3)cc(=O)c2c1` (single isomer, unassigned) [Example 47, 2-[1-(6-Methyl-4-oxo-2-phthalazin-6-yl-chromen-8-yl)ethylamino]benzoic acid] were, in that order, 1 to 5 µM and under 0.5 µM.
For `Cc1cc(C(C)Nc2ccccc2C(=O)O)c2oc(-c3ccc4c(cnn4CC(C)(C)O)c3)cc(=O)c2c1` (single isomer, unassigned) [Example 123, 2-[1-[2-[1-(2-Hydroxy-2-methyl-propyl)indazol-5-yl]-6-methyl-4-oxo-chromen-8-yl]ethylamino]benzoic acid], in that order: 1 to 5 µM and under 0.5 µM.
Regarding `Cc1cc(C(C)Nc2ccccc2C(=O)O)c2oc(-c3cccc4c3OCO4)c(C)c(=O)c2c1` (single isomer, unassigned) [Example 92, 2-[1-[2-(1,3-Benzodioxol-4-yl)-3,6-dimethyl-4-oxo-chromen-8-yl]ethylamino]benzoic acid], the IC50 in test [1] was 1 to 5 µM; in test [2], under 0.5 µM.
Take `Cc1cc(C(C)Nc2ccccc2C(=O)O)c2oc(-c3ccc4nccn4n3)cc(=O)c2c1` (single isomer, unassigned) [Example 36, 2-[1-(2-Imidazo[1,2-b]pyridazin-6-yl-6-methyl-4-oxo-chromen-8-yl)ethylamino]benzoic acid]: the IC50 was 1 to 5 µM in test [1] and under 0.5 µM in test [2].
The like results for `Cc1cc(C(C)Nc2ccccc2C(=O)O)c2oc(-c3ccc4nc(C)cn4c3)cc(=O)c2c1` (single isomer, unassigned) [Example 38, 2-[1-[6-Methyl-2-(2-methylimidazo[1,2-a]pyridin-6-yl)-4-oxo-chromen-8-yl]ethylamino]benzoic acid] were, in that order, 1 to 5 µM and under 0.5 µM.
The like results for `Cc1cc(C(C)Nc2ccccc2C(=O)O)c2oc(-c3cccc4c3cnn4C)cc(=O)c2c1` (single isomer, unassigned) [Example 136, 2-[1-[6-Methyl-2-(1-methylindazol-4-yl)-4-oxo-chromen-8-yl]ethylamino]benzoic acid] were, in that order, 1 to 5 µM and under 0.5 µM.
The like results for `Cc1cc(C(C)Nc2ccccc2C(=O)O)c2oc(-c3cccn4nccc34)cc(=O)c2c1` (single isomer, unassigned) [Example 106, 2-[1-(6-Methyl-4-oxo-2-pyrazolo[1,5-a]pyridin-4-yl-chromen-8-yl)ethylamino]benzoic acid] were, in that order, under 0.5 µM and under 0.5 µM.
For the molecule `Cc1c(-c2ccc3nn(C)cc3c2)oc2c(C(C)Nc3ccccc3C(=O)O)cc(F)cc2c1=O` (single isomer, unassigned) [Example 57, 2-[1-[6-Fluoro-3-methyl-2-(2-methylindazol-5-yl)-4-oxo-chromen-8-yl]ethylamino]benzoic acid], the IC50 in test [1] and in test [2] was 1 to 5 µM throughout.
With `Cc1cc(C(C)Nc2ccccc2C(=O)O)c2oc(-c3c[nH]c4ccccc34)c(C)c(=O)c2c1` (single isomer, unassigned) [Example 154, 2-[1-[2-(1H-Indol-3-yl)-3,6-dimethyl-4-oxo-chromen-8-yl]ethylamino]benzoic acid], the IC50 in test [1] is 1 to 5 µM; in test [2], under 0.5 µM.
For `Cc1cc(C(C)Nc2ccccc2C(=O)O)c2oc(-c3ccc4c(c3)CN(C)C4=O)cc(=O)c2c1` (single isomer, unassigned) [Example 31, 2-[1-[6-Methyl-2-(2-methyl-1-oxo-isoindolin-5-yl)-4-oxo-chromen-8-yl]ethylamino]benzoic acid], in that order: 1 to 5 µM and under 0.5 µM.
The like results for `Cc1cc(C(C)Nc2ccccc2C(=O)O)c2oc(-c3ccc4nc(C)cn4n3)cc(=O)c2c1` (single isomer, unassigned) [Example 107, 2-[1-[6-Methyl-2-(2-methylimidazo[1,2-b]pyridazin-6-yl)-4-oxo-chromen-8-yl]ethylamino]benzoic acid] were, in that order, 1 to 5 µM and 0.5 to 1 µM.
The like results for `Cc1cc(C(C)Nc2ccccc2C(=O)O)c2oc(-c3ccc4cncnc4c3)cc(=O)c2c1` (single isomer, unassigned) [Example 114, 2-[1-(6-Methyl-4-oxo-2-quinazolin-7-yl-chromen-8-yl)ethylamino]benzoic acid] were, in that order, over 10 µM and over 10 µM.
With `Cc1cc(C(C)Nc2ccc(C)nc2C(=O)O)c2oc(-c3nn(C)c4ccccc34)cc(=O)c2c1` (single isomer, unassigned) [Example 176, 6-Methyl-3-[1-[6-methyl-2-(1-methylindazol-3-yl)-4-oxo-chromen-8-yl]ethylamino]pyridine-2-carboxylic acid], the IC50 in test [1] was over 10 µM; in test [2], under 0.5 µM.
For the molecule `Cc1cc(C(C)Nc2ccccc2C(=O)O)c2oc(-c3ccc4c(n3)N(C)C(=O)C4)cc(=O)c2c1` (single isomer, unassigned) [Example 141, 2-[1-[6-Methyl-2-(1-methyl-2-oxo-3H-pyrrolo[2,3-b]pyridin-6-yl)-4-oxo-chromen-8-yl]ethylamino]benzoic acid], the IC50 in test [1] is 1 to 5 µM; in test [2], under 0.5 µM.
For `Cc1cc(C(C)Nc2ccccc2C(=O)O)c2oc(-c3ccc4cc[nH]c4c3)cc(=O)c2c1` (single isomer, unassigned) [Example 21, 2-[1-[2-(1H-Indol-6-yl)-6-methyl-4-oxo-chromen-8-yl]ethylamino]benzoic acid], in that order: 0.5 to 1 µM and under 0.5 µM.
In the case of `Cc1cc(C(C)Nc2ccccc2C(=O)O)c2oc(-c3ccc4c(cnn4CC4COC4)c3)cc(=O)c2c1` (single isomer, unassigned) [Example 138, 2-[1-[6-Methyl-2-[1-(oxetan-3-ylmethyl)indazol-5-yl]-4-oxo-chromen-8-yl]ethylamino]benzoic acid], the IC50 in test [1] is over 10 µM; in test [2] it was 0.5 to 1 µM.
For `Cc1cc(C(C)Nc2ccc(F)c(F)c2C(=O)O)c2oc(-c3ccc4nc(C)cn4n3)cc(=O)c2c1` (stereo not shown) [Example 94, 2,3-Difluoro-6-[1-[6-methyl-2-(2-methylimidazo[1,2-b]pyridazin-6-yl)-4-oxo-chromen-8-yl]ethylamino]benzoic acid], in that order: over 10 µM and 1 to 5 µM.
The like results for `Cc1cc(C(C)Nc2ccccc2C(=O)O)c2oc(-c3ccc4cc[nH]c4n3)cc(=O)c2c1` (stereo not shown) [Example 14, 2-[1-[6-Methyl-4-oxo-2-(1H-pyrrolo[2,3-b]pyridin-6-yl)chromen-8-yl]ethylamino]benzoic acid] were, in that order, 1 to 5 µM and under 0.5 µM.
